Values of other authors, collected in patent US20050182028A1, “Pharmaceutical formulation for oral delivery of bisphosphates” (priority 2004, published 2005).

Details: background statement

O=P(O)(O)C(O)(Cc1cccnc1)P(=O)(O)O [risedronate, Risedronate]
oral bioavailability: 0.63%
